Laboratory results published in patent US7625948B2, “Ester compound and medicinal use thereof” (Japan Tobacco Inc., priority 2002, dated 2009).

System: HepG2 cells
Test: Test Example 2: inhibition of apolipoprotein B secretion from HepG2 cells, ELISA (also used for metabolites in Test Example 8)
Assay type: cell-based
Conditions: Homo sapiens, 24 hours, apo B in supernatant by ELISA, read-out: Test Example 2 Inhibition of apo B secretion IC50
Experimental: Inhibition of Apolipoprotein B Secretion from HepG2 Cells
HepG2 cells were suspended in Dulbecco's Modified Eagle's Medium (DMEM) (containing 10% fetal bovine serum, 100 units/mL penicillin and 100 μg/mL streptomycin), and placed on a 96-well plate (4×10^4 cells/well), then incubated for 24 hours. After removal of the medium, DMEM was replaced by a medium containing a sample dissolved in DMSO or a medium containing DMSO (concentration of DMSO: 0.5%) and incubation was further performed for 24 hours, after which the supernatant was recovered, and concentration of apo B in the supernatant was assayed by Enzyme-Linked Immunosorbent Assay (ELISA)
ELISA was carried out as follows. Anti-human apo B monoclonal antibody (0.5 μg/well) diluted with a solution of sodium carbonate in sodium bicarbonate buffer (50 mL, pH 9.6) was placed in a 96-well plate for ELISA, and allowed to stand at room temperature for 15 hours. After washing the plate, a blocking solution (250 μL/well) was placed in the well, and allowed to stand at room temperature for 1.5 hours. After washing the plate, a standard and a sample (100 μL/well) were placed in the well and allowed to stand at room temperature for one hour. The standard was prepared by adjusting the concentration of the purified human apo B with the DMEM to 0 to 1000 ng/mL. After washing the plate, an anti-human apo B polyclonal antibody labeled with a horse radish peroxidase which was diluted in 1:1000 with DEME (100 μL/well), and allowed to stand at room temperature for one hour. After washing the plate, 2,2-azinobis(3-ethylbenzothiazoline-6-sulfonic acid) solution (100 μL/well) was placed in the well, and allowed to stand at room temperature for one hour. The reaction was stopped by addition of 2% oxalic acid (100 μL/well), and absorbency at 405 nm was measured. Concentration of apo B in the sample was calculated on the basis of a standard curve of the standard. Inhibition rate (%) was calculated from the assayed values in accordance with the following equation.
Inhibition rate (%)=100×(1 minus (concentration of apo B in sample group/concentration of apo B in DMSO group).
Based on the above equation, 50% inhibition concentration (IC50) was determined.
Inhibitory Activity on MTP and apo B Secretion Inhibition by Metabolites
In a similar manner to Test Examples 1 and 2, the activity of metabolites was assayed.

Row | Structure (SMILES) | IC50 [nM]
1 | CCOC(=O)c1cc(CC(=O)OCC(C(=O)OCC)(C(=O)OCC)c2ccccc2)ccc1NC(=O)c1ccccc1-c1ccc(C(F)(F)F)cc1 [Example 9-4, 2-(2-{3-Ethoxycarbonyl-4-[(4′-trifluoromethylbiphenyl-2-carbonyl)amino]phenyl}acetoxymethyl)-2-phenylmalonic acid diethyl ester] | 9.9
2 | CCOC(=O)C(COC(=O)Cc1ccc(NC(=O)c2ccccc2-c2ccc(C(F)(F)F)cc2)c(C(=O)OCc2ccccc2)c1)(C(=O)OCC)c1ccccc1 [Example 9-14] | 41
3 | CCNC(=O)C(COC(=O)Cc1ccc(NC(=O)c2ccccc2Oc2ccccc2)c(C(=O)N(C)C)c1)(C(=O)NCC)c1ccccc1 [Example 2-44] | 33
4 | CCNC(=O)C(COC(=O)Cc1ccc(NC(=O)c2ccccc2-c2ccc(C(F)(F)F)cc2)c(C(=O)N(C)C(C)C)c1)(C(=O)NCC)c1ccccc1 [Example 2-12] | 7
5 | CCOC(=O)C(COC(=O)Cc1ccc(NC(=O)c2ccccc2-c2ccc(C(F)(F)F)cc2)c(C(=O)N(C)C)c1)c1ccccc1 (stereo not drawn) [Example 2-50] | 21
6 | CCC(=O)N[C@@H](COC(=O)Cc1ccc(NC(=O)c2ccccc2-c2ccc(C(F)(F)F)cc2)c(C(=O)N(C)C)c1)c1ccccc1 [Example 2-24] | 28
7 | CCOC(=O)C(CCOC(=O)Cc1cccc(NC(=O)c2ccccc2-c2ccc(C(F)(F)F)cc2)c1OC)(C(=O)OCC)c1ccccc1 [Example 5-13] | 2.4
8 | C=C(C)c1cc(C(F)(F)F)ccc1C(=O)Nc1ccc(CC(=O)OCC(C(=O)OCC)(C(=O)OCC)c2ccccc2)cc1C(=O)N(C)C [Example 2-93] | 45.8
9 | CCOC(=O)C(COC(=O)Cc1ccc(NC(=O)c2ccccc2C(F)(F)F)c(C(=O)N(C)C)c1)(C(=O)OCC)c1ccccc1 [Example 2-31] | 43
10 | CCOC(=O)C(COC(=O)Cc1ccc(NC(=O)c2ccccc2-c2ccc(C(F)(F)F)cc2)c(C(=O)N(C)C)c1)(C(=O)OCC)c1ccc(C)cc1 [Example 2-70] | 2.34
11 | CCOC(=O)C(COC(=O)Cc1ccc(NC(=O)c2ccccc2-c2ccc(C(F)(F)F)cc2)c(C(=O)N(C)C)c1)(C(=O)OCC)C(=O)OCC [Example 2-118] | 49
12 | CCOC(=O)C(COC(=O)Cc1ccc(NC(=O)c2ccccc2-c2ccc(C(F)(F)F)cc2)c(N2CCOCC2)c1)(C(=O)OCC)c1ccccc1 [Example 4-7] | 15
13 | CCNC(=O)C(COC(=O)Cc1ccc(NC(=O)c2ccccc2-c2ccc(C(F)(F)F)cc2)c(C(=O)N2CCCCC2)c1)(C(=O)NCC)c1ccccc1 [Example 2-16] | 2.7
14 | CN(C)C(=O)c1cc(CC(=O)OCC(CO)(CO)c2ccccc2)ccc1NC(=O)c1ccccc1-c1ccc(C(F)(F)F)cc1 [Example 2-103] | 42.6

These reach a lower IC50. Values come first.

Row | IC50 [nM] | Structure (SMILES)
15 | 2.25 | CCOC(=O)C(COC(=O)Cc1ccc(NC(=O)c2ccccc2-c2ccc(C(F)(F)F)cc2)c(C(=O)N(C)C)c1)(C(=O)OCC)c1ccccc1C [Example 2-68]
16 | 1.92 | CCOC(=O)C(COC(=O)Cc1ccc(NC(=O)c2ccccc2-c2ccc(C)cc2)c(C(=O)N(C)C)c1)(C(=O)OCC)c1ccccc1 [Example 2-88]
17 | 1.9 | CCNC(=O)C(COC(=O)Cc1ccc(NC(=O)c2ccccc2-c2ccc(C(F)(F)F)cc2)c(OCc2ccccc2)c1)(C(=O)NCC)c1ccccc1 [Example 3-13]
18 | 1.9 | CCOC(=O)C(COC(=O)Cc1cc(C(=O)N(C)C)c(NC(=O)c2ccccc2-c2ccc(C(F)(F)F)cc2)cc1F)(C(=O)OCC)c1ccccc1 [Example 2-58]
19 | 0.99 | CCOC(=O)C(COC(=O)Cc1cc(Br)c(NC(=O)c2ccccc2-c2ccc(C(F)(F)F)cc2)c(C(=O)N(C)C)c1)(C(=O)OCC)c1ccccn1 [Example 2-59]
20 | 0.93 | CCOC(=O)C(COC(=O)Cc1ccc(NC(=O)c2ccccc2-c2ccc(C(F)(F)F)cc2)c(C(=O)N(C)C)c1)(C(=O)OCC)c1ccc(C)s1 [Example 2-109]
21 | 0.91 | CCOC(=O)C(COC(=O)Cc1ccc(NC(=O)c2ccccc2-c2ccc(C(F)(F)F)cc2)c(C(=O)N(C)C)c1)(C(=O)OCC)c1cccc(C)c1 [Example 2-69]
